Results reported in patent US20110212031A1, “NOVEL SUBSTITUTED AZABENZOXAZOLES” (priority 2008, published 2011).

Experiments:
human MAO-B [1] = target: T1, human MAO-B (Homo sapiens, UniProt P27338); assay: Monoamine oxidase B functional assay (kynuramine deamination, fluorescence); assay type: biochemical; conditions: membrane fractions from insect cells expressing human MAO-B; kynuramine substrate
T1 construct: purchased BD Biosciences Discovery Labware, Woburn Mass; (BD Supersomes Enzymes); host or cells: insect cells
T1 sequence (P27338 1-520): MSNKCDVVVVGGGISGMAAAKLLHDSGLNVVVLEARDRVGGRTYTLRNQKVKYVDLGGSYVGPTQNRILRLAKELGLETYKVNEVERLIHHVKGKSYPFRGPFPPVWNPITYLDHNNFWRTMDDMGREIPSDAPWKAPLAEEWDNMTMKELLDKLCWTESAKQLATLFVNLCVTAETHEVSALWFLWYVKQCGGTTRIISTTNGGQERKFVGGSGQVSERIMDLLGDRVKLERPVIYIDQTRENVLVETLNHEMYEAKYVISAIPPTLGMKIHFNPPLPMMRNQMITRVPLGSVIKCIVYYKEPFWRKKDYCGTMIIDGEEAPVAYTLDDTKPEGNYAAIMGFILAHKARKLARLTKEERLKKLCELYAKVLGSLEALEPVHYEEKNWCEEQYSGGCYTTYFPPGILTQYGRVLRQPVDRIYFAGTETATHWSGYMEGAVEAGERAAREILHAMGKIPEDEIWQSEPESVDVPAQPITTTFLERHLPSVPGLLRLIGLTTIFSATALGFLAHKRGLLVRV
Experimental: Functional assay: MAO-B containing membrane fractions prepared from insect cells expressing human MAO-B (BD Supersomes Enzymes, BD Biosciences Discovery Labware, Woburn Mass.) were used as a source of MAO-B. Assays were conducted in 96-well plates in a final volume of 200 μL. The assay buffer was 0.1 M potassium phosphate (pH 7.4). The assay system consisted of three mixes: a) inhibitor dilution mix, which was the assay buffer, b) substrate/buffer/control insect cell protein mix: 4× substrate-80 μM kynuramine and 4× control insect cell protein, and c) enzyme/buffer mix: 4× concentrate of MAO-B prepared in assay buffer. The final MAO-B concentration was 0.015 mg/mL. The final total, normalized protein concentration, using control insect protein, was 0.06 mg/mL. Test compounds were serial diluted 3-fold in the inhibitor dilution mix directly in the 96-well plate (total final volume of 100 μL). Fifty μL of the substrate/buffer mix was added to each well. The 96-well plate, containing test compound and MAO substrate (150 μL total volume), was preincubated to 37° C. The reaction was initiated with 50 μL of enzyme/buffer mix. […] Product formation was quantified by comparing the fluorescence emission of the samples to that of known amounts of authentic metabolite standard, 4-hydroxyquinoline, the product formed from kynuramine deamination. […]

human MAO-B [2] = target: T1, human MAO-B; assay: MAO-B radioligand binding assay ([3H]-DMAB or [3H] 5-Fluoro-2-(1-methyl-1H-indazol-5-yl)-oxazolo[5,4-b]pyridine); conditions: membrane fractions from insect cells expressing human MAO-B; radioligand 8-10 nM
Experimental: Radioligand binding assay: MAO-B containing membrane fractions prepared from insect cells expressing human MAO-B (BD Supersomes Enzymes, BD Biosciences Discovery Labware, Woburn Mass.) were used as a source of MAO-B. [^3H]-DMAB or [^3H] 5-Fluoro-2-(1-methyl-1H-indazol-5-yl)-oxazolo[5,4-b]pyridine were synthesized at a specific activity of ˜80 Ci/mmol. The final concentration of radioligand for tissue homogenate binding assay was 8-10 nM. MAO-B membrane fractions were diluted with phosphate buffered saline (PBS) to 0.25 mg/mL from original 5 mg/mL volume and 200 μl was used in assay for a final mass of 50 μg/assay tube. Unlabeled test compounds were dissolved in dimethylsulfoxide (DMSO) at 1 mM. Dilution of test compound to various concentrations was made with PBS containing 2% DMSO. Total binding was defined in the absence of competing compound, and non-displaceable binding was determined in the presence of 1 μM unlabeled self block. Compound dilutions (10×) were added into the assay tube (25 μL each per tube, separately) containing 200 μL diluted MAO-B membrane fraction, and the tubes were pre-incubated at room temperature for 10 minutes. […] Filters were punched into scintillation vials and counted in 2 mL Ultima Gold on Perkin Elmer Tri-Carb 2900TR for 1 minute. […]

Ki (human MAO-B [1]) [nM]	IC50 (human MAO-B [2]) [nM]	SMILES
18	–	Cn1ccc2cc(-c3nc4ccc(F)nc4o3)cnc21
–	3.7	Cn1ccc2cc(-c3nc4ccc(F)nc4s3)cnc21
–	31	CN(C)c1ccc(-c2nc3ccc(F)nc3o2)cc1
